Test results: patent US4013663A, “Isoquinoline compounds” (priority 1974, dated 1977)

Assays:
[1] = test system: β-receptors of the blood vessel system; test: β-receptor blocking activity on the blood vessel system (blood pressure measurement in the same animal); assay type: in vivo, guinea pig; conditions: ratio of effective doses from Table 1, given as 1: x
Protocol: (§1) The particular β-receptor blocking activity on the heart in comparison to that on the blood vessel system was measured by the taking of an EKG or by measurement of the blood pressure in the same animal (guinea pigs) [cf. J. R. C. Baird et al., J. Pharm. Pharmac. […] For investigation of broncho-constrictor activity, the inhibition of the isoprenalin effect on the bronchial system of the guinea pig is employed [cf. H. Konzett et al., Arch. exp. Path. Pharmak.

[2] = test system: β-receptors of the bronchial system; test: inhibition of the isoprenalin effect on the bronchial system; assay type: in vivo, guinea pig; conditions: for dosage relationships in comparison with the comparison compound: Table 2, versus F; for influence of heart-active doses on the bronchial system: at heart-active doses; for Heart: Bronchial System (activity relationship, heart = 1): ratio of effective doses from Table 1, given as 1: x
Protocol: as §1

in vivo = conditions: mouse, in vivo, iv
Protocol: (§2) The investigations on toxicity were carried out by intravenous administration to albino mice.

albino mice = test: in vivo; conditions: Table 3
Protocol: as §2

| Structure (SMILES) | Heart: Blood vessels (activity relationship, heart = 1) [1] | dosage relationships in comparison with the comparison compound [2] | influence of heart-active doses on the bronchial system [2] | Heart: Bronchial System (activity relationship, heart = 1) [2] | LD50 (in vivo) | toxicity and activity in comparison with E, F, and G (albino mice) |
| --- | --- | --- | --- | --- | --- | --- |
| CC(=O)N1CCc2cc(OCC(O)CNC(C)C)ccc2C1 (stereo not shown) [Substance A, 2-acetyl-1,2,3,4-tetrahydro-6-(2-hydroxy-3-isopropylamino-propoxy)-isoquinoline] | 6.2 | essentially more favorable than for the comparison compound | does not lead to a negative influence on the bronchial system | 5.5 |  |  |
| COc1cc2c(cc1OCC(O)CNC(C)C)CCN(C(C)=O)C2 (stereo not shown) [Substance B, 2-acetyl-1,2,3,4-tetrahydro-6-(2-hydroxy-3-isopropylamino-propoxy)-7-methoxy-isoquinoline] | 1.8 | essentially more favorable than for the comparison compound | does not lead to a negative influence on the bronchial system | > 7.2 |  |  |
| CC(C)NCC(O)COc1cccc2c1CCN(C=O)C2 (stereo not shown) [Substance C, 2-formyl-1,2,3,4-tetrahydro-5-(2-hydroxy-3-isopropylamino-propoxy)-isoquinoline] |  |  |  |  | 148 mg/kg | less toxic at higher activity |
| CC(C)(C)NCC(O)COc1cccc2c1CCN(C=O)C2 (stereo not shown) [Substance D, 2-formyl-1,2,3,4-tetrahydro-5-(2-hydroxy-3-tert.-butylaminopropoxy)-isoquinoline] |  |  |  |  | 128 mg/kg | less toxic at higher activity |
| CC(C)NCC(O)COc1cccc2[nH]ccc12 (stereo not shown) [Substance E, prindolol, reference compound] |  |  |  |  | 22.6 mg/kg |  |
| CC(C)NCC(O)COc1cccc2ccccc12 (stereo not shown) [Substance F, propranolol, reference compound] | 1 |  |  | 0.15 |  |  |
| CC(=O)Nc1ccc(OCC(O)CNC(C)C)cc1 (stereo not shown) [Substance G, practolol, reference compound] |  |  |  |  | 121 mg/kg |  |
